Assay results as given in paper PMC6017431, “Role of Cationic Side Chains in the Antimicrobial Activity of C18G” (Molecules : A Journal of Synthetic Chemistry and Natural …, 2018).
Read-outs that look alike come from different tables or passages of the source. Non-standard residues stand in square brackets, D forms with d. Residues, ends and D or L forms follow the SMILES beside them. No end group written: not given here. Dap = NC[C@H](N)C(=O)O

Key:
[1] = system: S. aureus ATCC: 27660; assay type: cell-based, Staphylococcus aureus
Protocol: (§1) Each bacterial strain was streaked onto LB–Miller agar (BD-Difco, Franklin Lakes, NJ, USA) plates from a frozen stock collection (E. coli D31 [63] S. aureus ATCC: 27660, B. subtilis ATCC: 6051, P. aeruginosa PAO1 [17], and A. baumannii ATCC: 19606). After incubation to allow colony growth, plates stored in a refrigerator at 4 °C. Overnight cultures were inoculated with a single colony of each bacterial strain into fresh LB or Mueller Hinton broth (MH, BD-Difco) in sterile glass test tubes. Inoculated samples were placed in a 37 °C shaking incubator (250 rpm) for ~18 h. After the overnight incubation, a 1:200 dilution of the culture was made in fresh LB or MH for use in subsequent experiments.
(§2) Bacterial growth inhibition was investigated using the standard minimal inhibitory concentration (MIC) assay. Cultures of bacteria were grown as described above, subsequently diluted to ~10^5 cfu/mL in MH media. Subsequently, 90 μL of this diluted culture was added to wells of a sterile 96-well plate containing serially diluted aliquots of the peptides for a final volume in the well of 100 μL. The plate was covered and incubated at 37 °C for 18 h. After incubation the OD600 was measured with a Spectramax M5 multimode plate reader. Next, the minimal bactericidal concentration (MBC) was determined by taking 1 μL of culture from each well on the plate corresponding to peptide concentrations at and above the MIC and plating on a fresh LB-agar plate. The plate incubated overnight at 37 °C, and MBC was determined from the presence or absence of growth on each spot.

[2] = system: B. subtilis ATCC: 6051; assay type: cell-based, Bacillus subtilis
Protocol: as §1, §2

[3] = system: E. coli outer membrane; assay: E. coli outer membrane permeabilization (β-lactamase / nitrocefin); assay type: cell-based; details: E. coli D31 in PBS, peptide up to 15 µM, 30 min exposure, absorbance 486 nm, at least 3 replicates
Protocol: Permeabilization of the E. coli outer membrane is monitored using the periplasmic enzyme β-lactamase and the chromogenic substrate nitrocefin. […] The full time course of the permeabilization assay is shown in the supplementary files (Figure S1).
(§3) Figure 4 E. coli membrane permeabilization. Chromogenic substrate breakdown after 30 min of exposure to peptides. (A) Outer membrane permeabilization assayed by nitrocefin breakdown. (B) Inner membrane permeabilization assayed by ONPG breakdown. In both panels colors represent C18G (green), C18G-Arg (red), C18G-His (gray), C18G-Orn (orange), C18G-Dap (blue).
Permeabilization of the E. coli outer membrane was performed as described previously. Briefly, a single colony of E. coli D31 was inoculated in LB Broth (Difco) containing […] ampicillin and allowed to grow at 37 °C with shaking overnight. The culture was diluted 1:200 in LB-Amp and incubated at 37 °C until the OD600 was ~0.2. The culture was subsequently centrifuged at 2500 rpm for 15 min. The pellet was resuspended in an equal volume of PBS and added to a 96-well plate containing serially diluted peptides or polymyxin B (positive control). Immediately before reading, nitrocefin was added to the wells (final concentration 0.25 mg/mL) and mixed by pipetting. The sample absorbance was measured at 486 nm for 90 min. All assays were performed at least in triplicate.

[4] = system: E. coli inner membrane; assay: E. coli inner membrane permeabilization (β-galactosidase / ONPG); assay type: cell-based; details: peptide up to 15 µM, 30 min time point, absorbance 420 nm, at least 3 replicates
Protocol: as §3
Permeabilization of the E. coli inner membrane is monitored with the cytoplasmic enzyme β-galactosidase and the chromogenic substrate ortho-nitrophenyl-β-galactoside (ONPG). This assay in conceptually similar to the outer membrane assay described above, but is focused only on the permeability of the inner membrane. The results are shown in Figure 4B for the 30 min time point of the assay, and the full time course is shown in the supplementary figures (Figure S2).
Inner membrane permeabilization was performed as described previously. The procedure follows that of the outer membrane permeabilization assay, described above, with several modifications. Bacteria were grown overnight in LB media lacking Amp, and dilutions were made in LB supplemented with IPTG. Assay plates were prepared the same, except that cells were not centrifuged before the assay, and were added to the plate directly in the culture medium. Positive control for the inner membrane assay was the cationic detergent CTAB. The substrate was ONPG dissolved in Z-buffer added to a final concentration 0.6 mg/mL in the wells. The sample absorbance was measured at 420 nm for 90 min. All assays were performed at least in triplicate

[5] = system: S. aureus membrane; assay: S. aureus membrane permeabilization (propidium iodide, flow cytometry); assay type: cell-based; details: 30 min, relative to CTAB positive control
Protocol: The membrane architecture varies greatly between Gram-positive and Gram-negative bacteria. The ability of the peptides to permeabilize a Gram-positive bacterial membrane was also investigated; however, in this case, the use of a bacterial enzyme and chromogenic substrate was not possible. Instead, membrane permeability was assessed using the DNA binding fluorophore propidium iodide (PI). The PI molecule is generally impermeable across the cell membrane under normal conditions, but upon permeabilization, PI can readily cross the membrane and bind to DNA, resulting in a dramatic increase in fluorescence emission intensity.
Figure 5 Membrane permeabilization. (A) Permeabilization of S. aureus membranes by peptides. Cultures of S. aureus were incubated with varying concentrations of peptide and 3.75 µg/mL propidium iodide (PI). PI fluorescence was measured via flow cytometry after 30 min of exposure to peptides. Percent leakage was determined based on the positive control CTAB (data not shown). (B) Peptide induced hemolysis. Defibrinated sheep red blood cells were incubated for 1 h with varying concentrations of peptide or control at 37 °C in sterile PBS. After pelleting the remaining cells, the absorbance of the supernatant was measured at 415 nm to detect released hemoglobin. Percent leakage was determined based on the positive control CTAB (Figure S3). All data is the average of at least 3 replicates, where error bars represent the standard deviation.
Flow cytometry was used to identify cell permeability by incorporation of propidium iodide (PI) into S. aureus under various concentrations of CTAB detergent, C18G, C18G-Arg, C18G-His, C18G-Orn, C18G-Dap peptides using a BD FACSCelesta flow cytometer. Approximately 10,000 cells per sample in 100 µL of PBS, permeabilization reagent, and PI 5.6 μM solution, were incubated for 30 min or 45 min at 23 °C counted in duplicate, and fluorescent signal was evaluated Ex 488 nm laser, Em 575 filter. Percentage of cells found to be permeable for all samples was established by gating around cells on histogram illustrating PI signal with known complete permeabilization CTAB 102 µM.

[6] = Trp fluorescence binding to lipid vesicles; details: 2 µM peptide in PBS pH 7.0 titrated with SUVs up to 300 µM lipid, excitation 280 nm, 2-5 replicates
Description: Based on the proposed mechanism of membrane disruption, the ability of the C18G peptides to interact with lipid vesicles was investigated. All of the sequences contain a Trp residue which can be used as a reporter of the local environment. As the peptide moves from the aqueous milieu to the bilayer surface, the Trp experiences a significant change in the polarity of the local environment. This change in environmental polarity results in a shift of the Trp emission spectrum from more red-shifted (aqueous) to more blue-shifted (bilayer bound). […] The shift in the emission spectrum can be quantified by changes in […] (λmax) or by a shift in the spectral barycenter.
Figure 2 Trp fluorescence emission to measure peptide binding to vesicles. […] Trp emission barycenter was calculated after each addition of vesicles and plotted as a function of total lipid concentration. […]
Measurements were performed on a JY-Horiba fluoromax4 instrument with emission and excitation slits set to 2.5 nm. For lipid binding/titration assays, samples were excited at 280 nm with emission measured over the range of 300–400 nm. […] The barycenter of the spectrum is an intensity-weighted average over the wavelengths measured, and Δbarycenter is the difference between the barycenter of the sample lacking lipid, and that of a given sample [32, 65]. […]

[7] = MH media, ~10^5 cfu/mL, 37 °C, 18 h, OD600

Row | Molecule | S. aureus MBC ([1]; ATCC: 27660, 18 h) [µM] | S. aureus MIC [1, 7] [µM] | B. subtilis MBC ([2]; 1 µL from wells at and above MIC plated on LB-agar, overnight 37 °C) [µM] | B. subtilis MIC [2, 7] [µM] | Outer membrane permeabilization (nitrocefin breakdown) [3] | Inner membrane permeabilization (ONPG breakdown) [4] | S. aureus MIC ([1]; ATCC: 27660, 18 h) [µM] | B. subtilis MBC ([2]; ATCC: 6051, 18 h) [µM] | B. subtilis MIC ([2]; ATCC: 6051, 18 h) [µM] | Percent leakage (PI) of S. aureus membrane ([5]; 7.5 µM peptide) [%] | Percent leakage (PI) of S. aureus membrane ([5]; 15 µM peptide) [%] | Binding to 3:1 PC/PG lipid vesicles (shift of Trp emission barycenter) [6] | Percent leakage (PI) of S. aureus membrane ([5]; down through 3.75 µM peptide) | Binding to 100% PC lipid vesicles (shift of Trp emission barycenter) [6] | Percent leakage (PI) of S. aureus membrane ([5]; through 1.88 µM peptide) [%] | Fold increase in MIC relative to the parent sequence ([1]; against S. aureus) [fold]
1 | ALWKKLLKKLLKSAKKLG-NH2 [C18G] | 3.75 | 1.875 | 1.875 | 1.875 | near maximal permeabilization observed above 3.75 µM | highest degree of permeabilization |  |  |  |  |  |  |  |  |  | 
2 | ALWHHLLHHLLHSAHHLG-NH2 [C18G-His] | 15 |  |  |  | almost no permeabilization of the outer membrane except at 15 µM | little to no permeabilization | 15 | >15 | 1.875 | > 50 | > 50 | bound anionic bilayers with higher affinity than zwitterionic bilayers |  |  |  | 
3 | ALWRRLLRRLLRSARRLG-NH2 [C18G-Arg] | 3.75 |  |  |  | near maximal permeabilization observed above 3.75 µM | induced less leakage | 3.75 | 1.875 | 1.875 |  |  |  | ~ 90% | significant increase in binding to zwitterionic PC membranes compared to C18G |  | 
4 | CC(C)C[C@H](NC(=O)[C@H](C)N)C(=O)N[C@@H](Cc1c[nH]c2ccccc12)C(=O)N[C@@H](CCCN)C(=O)N[C@@H](CCCN)C(=O)N[C@@H](CC(C)C)C(=O)N[C@@H](CC(C)C)C(=O)N[C@@H](CCCN)C(=O)N[C@@H](CCCN)C(=O)N[C@@H](CC(C)C)C(=O)N[C@@H](CC(C)C)C(=O)N[C@@H](CCCN)C(=O)N[C@@H](CO)C(=O)N[C@@H](C)C(=O)N[C@@H](CCCN)C(=O)N[C@@H](CCCN)C(=O)N[C@@H](CC(C)C)C(=O)NCC(N)=O [C18G-Orn] (HELM PEPTIDE1{A.L.W.[Orn].[Orn].L.L.[Orn].[Orn].L.L.[Orn].S.A.[Orn].[Orn].L.G.[am]}$$$$V2.0) | 1.875 |  |  |  | near maximal permeabilization observed above 3.75 µM | very little observed leakage | 1.875 | 7.5 | 3.75 |  |  |  |  |  | > 50 | 
5 | CC(C)C[C@H](NC(=O)[C@H](C)N)C(=O)N[C@@H](Cc1c[nH]c2ccccc12)C(=O)N[C@@H](CN)C(=O)N[C@@H](CN)C(=O)N[C@@H](CC(C)C)C(=O)N[C@@H](CC(C)C)C(=O)N[C@@H](CN)C(=O)N[C@@H](CN)C(=O)N[C@@H](CC(C)C)C(=O)N[C@@H](CC(C)C)C(=O)N[C@@H](CN)C(=O)N[C@@H](CO)C(=O)N[C@@H](C)C(=O)N[C@@H](CN)C(=O)N[C@@H](CN)C(=O)N[C@@H](CC(C)C)C(=O)NCC(N)=O [C18G-Dap] (H-ALW[Dap][Dap]LL[Dap][Dap]LL[Dap]SA[Dap][Dap]LG-NH2) | 7.5 |  |  |  | permeabilization to a lesser extent | little to no permeabilization | 7.5 | 1.875 | 1.875 |  |  |  |  |  |  | ≤ 4
